Literature values, collected in patent publication US20090018199A1, “Methods of Administering 3, 3, 14, 14 Tetramethyl Hexadecane 1, 16 Dioic Acid” (SYNDROME X LTD., priority 2003, published 2009).

System: patients
Conditions: follow-up 15 years total, patients randomized to niacin

Which “decrease in all-cause mortality” value does the source give for `O=C(O)c1cccnc1` [Niacin, niacin] here?
Its value is 11%.
